The target in the assay is T1, PAF receptor (human platelet plasma membrane) (Homo sapiens, UniProt P25105).
T1 construct: Platelet concentrates were obtained from a hospital blood bank; from tissue; host or cells: human platelets (hospital blood bank concentrates), lysed platelet membranes
T1 sequence (P25105 whole entry): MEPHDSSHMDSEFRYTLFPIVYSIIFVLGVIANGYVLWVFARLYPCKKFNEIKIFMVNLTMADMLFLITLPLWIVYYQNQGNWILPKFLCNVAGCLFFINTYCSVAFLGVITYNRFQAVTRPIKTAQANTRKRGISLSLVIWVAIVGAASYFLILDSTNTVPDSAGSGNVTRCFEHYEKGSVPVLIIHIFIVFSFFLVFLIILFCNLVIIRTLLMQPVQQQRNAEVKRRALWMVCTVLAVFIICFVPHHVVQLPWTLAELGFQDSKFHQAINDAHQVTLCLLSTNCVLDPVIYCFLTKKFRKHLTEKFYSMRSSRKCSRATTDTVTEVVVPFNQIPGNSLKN
Kind of assay: Inhibition of ^3 H-PAF receptor binding to human platelet plasma membrane. To be noted: ^3 H-PAF 0.5 nM, 0° C., 1 hour. On the procedure:
Compounds of general formula I inhibit PAF induced functions in both the cellular and tissue levels by changing the PAF binding to its specific receptor site. The ability of compounds of general formula I to inhibit platelet aggregation in human platelet-rich plasma, and to inhibit the binding of PAF to its specific receptor binding site on human platelet plasma membranes was measured in the assay described in the pharmacology example.
The inhibition of ^3 H-PAF binding to human platelet plasma membrane by compounds of general formula I was determined by isotopic labelling and filtration techniques. Platelet concentrates were obtained from a hospital blood bank. These platelet concentrates (500-2500 ml.) were centrifuged at 800 rpm for 10 minutes in a SORVALL RC3B centrifuge to remove the red blood cells present. (The word SORVALL is a trade mark.) The supernatant was subsequently centrifuged at 3,000 rpm in a SORVALL RC3B centrifuge to pellet the platelets present. The platelet rich pellets were resuspended in a minimum volume of buffer (150 Mm NaCl, 10 mM Tris, 2 mM EDTA, pH 7.5) and layered onto Ficoll-Paque gradients, 9 ml platelet concentrate to 2 ml Ficoll, and centrifuged at 1,900 rpm for 15 minutes in a SORVALL RT6000 centrifuge. This step removes the residual red blood cells and other nonspecific material such as lymphocytes from the preparation. The platelets which form a band between the plasma and the Ficoll were removed, resuspended in the above buffer and centrifuged at 3,000 rpm for 10 minutes in a SORVALL RT6000 centrifuge. The pelleted platelets were resuspended in buffer (10 mM Tris, 5 mM MgCl2, 2 mM EDTA, pH 7.0), snap-freezed in liquid N2 and allowed to thaw slowly at room temperature in order to lyse the platelets. The latter step was repeated at least 3 times to ensure proper lysis. The lysed platelets were centrifuged at 3,000 rpm for 10 minutes in a SORVALL RT6000 centrifuge and resuspended in buffer. The latter step was reseated twice in order to remove any cytoplasmic proteins which may hydrolyse the platelet activating factor (PAF) receptor. The prepared platelet membranes may be stored at -70° C. After thawing the prepared membranes were centrifuged in a SORVALL RT6000 at 3,000 rpm for 10 minutes and resuspended in assay buffer.
The assay was conducted by preparing a series of a Tris-buffered solutions of the selected antagonist of predetermined concentrations. Each of these solutions contained ^3 H-PAF (0.5 nM; 1-O-(^3 H]octadecyl-2-acetyl-sn-glycero-3-phosphoryl choline with a specific activity of 132 Ci/mmol), […], a known amount of the test antagonist, and a sufficient amount of Tris-buffer solution (10 mM Tris, 5 mM MgCl2, pH 7.0, 0.25% BSA) to make the final volume 1 ml. Incubation was initiated by the addition of 100 μg of the isolated membrane fraction to each of the above solutions at 0° C. Two control samples, one which ([…]) contained all the ingredients described above except the antagonist and the other (C2) contains C1 plus a 1000-fold excess of unlabelled PAF, were also prepared and incubated simultaneously with the test samples. After 1 hour incubation, each solution was filtered rapidly under vacuo through a WHATMAN GF/C glass fiber falter in order to separate unbound PAF from bound PAF. (The word WHATMAN is a trade mark.) The residue in each case was rapidly washed 4 times with 5 ml cold (4° C.) Tris-buffer solution. Each washed residue was dried under vacuum on a sampling manifold and placed into vials containing 20 ml of OPTIPHASE MP scintillation fluid and the radioactivity counted in a liquid scintillation counter. (The word OPTIPHASE is a trade mark.) Defining the counts for total binding with antagonist from a test sample as "TBA"; the counts for total binding from the control sample C1 as "TB"; and the counts for nonspecific binding from the control sample C2 as "NSB", the percent inhibition of each test antagonist can be determined by the following equation. […]
`Cc1nc2ccccc2n1Cc1ccc(C(=O)N(C2CCCCC2)C2CCCCC2)cc1` [Example 22, N,N-Dicyclohexyl 4-(1H-2-methylbenzimidazylmethyl)benzamide] displayed an IC50 of 0.65 µM.
As to `CSC(c1ccc(C(=O)N(C)C2CCCCC2)cc1)n1cnc2ccccc21` (stereo not drawn) [Example 63, N-Cyclohexyl-N-methyl 4-(1H-benzimidazylthiomethylmethyl) benzamide], the IC50 amounted to 0.5 µM. The IC50 values of the last two compounds are within 1.5-fold of each other.
As for `Cc1nc2cc([N+](=O)[O-])ccc2n1Cc1ccc(S(=O)(=O)N(C)C2CCCCC2)cc1` [Example 44, N-Cyclohexyl-N-methyl 4-(1H-2-methyl-5-nitrobenzimidazylmethyl) benzenesulphonamide], the figure is 5 µM; as for `Cc1nc2ccccc2n1Cc1ccc(N(C)P(=O)(c2ccccc2)c2ccccc2)cc1` [Example 59], 0.5 µM.
In turn, `CSc1nc2ccccc2n1Cc1ccc(C(=O)N(C)C2CCCCC2)cc1` [Example 26, N-Cyclohexyl-N-methyl 4-(1H-2-thiomethylbenzimidazylmethyl) benzamide] came in with an IC50 of 3 µM.
With `Cc1nc2ccccc2n1Cc1ccc(S(=O)(=O)N2CCC[C@H]3CCCC[C@@H]32)cc1` (relative stereo) [Example 92, trans-Decahydroquinolinyl 4-(1H-2-methylbenzimidazylmethyl) benzenesulphonamide] the figure was 0.7 µM.
For `Cc1nc2ccccc2n1Cc1ccc(S(=O)(=O)NCc2ccccc2Cl)cc1` [Example 80, N-2-Chlorobenzyl 4-(1H-2-methylbenzimidazylmethyl) benzenesulphonamide], the IC50 worked out at 0.9 µM.
As for `Cc1nc2ccccc2n1Cc1ccc(S(=O)(=O)N(C)C2CCCCC2)cc1` [Example 41, N-Cyclohexyl-N-methyl 4-(1H-2-methylbenzimidazylmethyl) benzenesulphonamide], the figure is 0.3 µM; as for `Cc1nc2ccccc2n1Cc1ccc(S(=O)(=O)N2CCCCC2)cc1` [Example 50, Piperidinyl 4-(1H-2-methylbenzimidazylmethyl)benzenesulphonamide], 2 µM.
As for `CCN(C(=O)c1ccc(Cn2c(C)nc3ccccc32)cc1)C1CCCCC1` [Example 21, N-Cyclohexyl-N-ethyl 4-(1H-2-methylbenzimidazylmethyl)benzamide], the figure is 0.5 µM.
With `Cc1nc2ccccc2n1Cc1ccc(NC(=O)C2CCCCC2)cc1` [Example 58, N-4-(1H-2-Methylbenzimidazylmethyl)benzyl cyclohexylamide] the figure was 2 µM; with `CCN(C1CCCCC1)S(=O)(=O)c1ccc(Cn2c(C)nc3ccccc32)cc1` [Example 49, N-Cyclohexyl-N-ethyl 4-(1H-2-(2-methyl)benzimidazylmethyl) benzenesulphonamide], 0.5 µM.

The term IC50 denotes the midpoint of a concentration-inhibition curve.
